PubChem BioAssay (NCI)
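Protocol summary: plate cells (96-well), add compound at 5 concentrations, incubate 48 h, interpolate endpoints linearly. TGI marks complete inhibition of growth.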

Columns and labels:
Assay in all cases: growth of human tumour cells (NCI), 48 h
[1] = tested on: MCF7 breast
[2] = tested on: 786-0 renal
[3] = tested on: ACHN renal
[4] = tested on: SF-295 CNS
[5] = tested on: HL-60(TB) leukemia
[6] = tested on: NCI-H460 lung
[7] = tested on: SN12C renal
[8] = tested on: UO-31 renal
[9] = tested on: MDA-N
[10] = tested on: COLO 205 colon
[11] = tested on: HCT-116 colon
[12] = tested on: SK-MEL-28 melanoma
[13] = tested on: MOLT-4 leukemia
[14] = tested on: SNB-19 CNS
[15] = tested on: HS 578T breast
[16] = tested on: NCI/ADR-RES ovarian
[17] = tested on: SW-620 colon
[18] = tested on: OVCAR-8 ovarian
[19] = tested on: MDA-MB-435
[20] = tested on: MALME-3M melanoma
[21] = tested on: KM12 colon
[22] = tested on: SK-MEL-2 melanoma
[23] = tested on: A498 renal
[24] = tested on: NCI-H522 lung
[25] = tested on: SF-539 CNS
[26] = tested on: UACC-62 melanoma
[27] = tested on: SK-MEL-5 melanoma
[28] = tested on: IGROV1 ovarian
[29] = tested on: TK-10 renal
[30] = tested on: MDA-MB-231 breast
[31] = tested on: HCT-15 colon
[32] = tested on: UACC-257 melanoma
[33] = tested on: OVCAR-3 ovarian
[34] = tested on: SR leukemia
[35] = tested on: U251 CNS
[36] = tested on: T-47D breast
[37] = tested on: RPMI-8226 leukemia
[38] = tested on: HCC-2998 colon
[39] = tested on: HT29 colon
[40] = tested on: NCI-H23 lung
[41] = tested on: HOP-62 NSCLC
[42] = tested on: A549 NSCLC
[43] = tested on: OVCAR-5 ovarian
[44] = tested on: EKVX NSCLC
[45] = tested on: BT-549 breast
[46] = tested on: K-562 leukemia
[47] = tested on: PC-3 prostate
[48] = tested on: OVCAR-4 ovarian
[49] = tested on: CAKI-1 renal
[50] = tested on: CCRF-CEM leukemia
[51] = tested on: NCI-H226 lung
[52] = tested on: DU-145 prostate
[53] = tested on: HOP-92 NSCLC
[54] = tested on: SF-268 CNS
[55] = tested on: M14 melanoma
[56] = tested on: SK-OV-3 ovarian
[57] = tested on: LOX IMVI melanoma

## N[C@@H](CCC(=O)NCP(=O)(O)O)C(=O)O
[1]
  TGI: > 100 µM
[2]
  TGI: > 100 µM
[3]
  TGI: > 100 µM
[4]
  TGI: > 100 µM
[5]
  TGI: > 100 µM
[6]
  TGI: > 100 µM
[7]
  TGI: > 100 µM
[8]
  TGI: > 100 µM
[9]
  TGI: > 100 µM
[10]
  TGI: > 100 µM
[11]
  TGI: > 100 µM
[12]
  TGI: > 100 µM
[13]
  TGI: > 100 µM
[14]
  TGI: > 100 µM
[15]
  TGI: > 100 µM
[16]
  TGI: > 100 µM
[17]
  TGI: > 100 µM
[18]
  TGI: > 100 µM
[19]
  TGI: > 100 µM
[20]
  TGI: > 100 µM
[21]
  TGI: > 100 µM
[22]
  TGI: > 100 µM
[23]
  TGI: > 100 µM
[24]
  TGI: > 100 µM
[25]
  TGI: > 100 µM
[26]
  TGI: > 100 µM
[27]
  TGI: > 100 µM
[28]
  TGI: > 100 µM
[29]
  TGI: > 100 µM
[30]
  TGI: > 100 µM
[31]
  TGI: > 100 µM
[32]
  TGI: > 100 µM
[33]
  TGI: > 100 µM
[34]
  TGI: > 100 µM
[35]
  TGI: > 100 µM
[36]
  TGI: > 100 µM
[37]
  TGI: > 100 µM
[38]
  TGI: > 100 µM
[39]
  TGI: > 100 µM
[40]
  TGI: > 100 µM
[41]
  TGI: > 100 µM
[42]
  TGI: > 100 µM
[43]
  TGI: > 100 µM
[44]
  TGI: > 100 µM
[45]
  TGI: > 100 µM
[46]
  TGI: > 100 µM
[47]
  TGI: > 100 µM

## O=C(c1ccccn1)C1(N2CCCCC2)CCCCC1
[1]
  TGI: > 100 µM
[2]
  TGI: > 100 µM
[3]
  TGI: > 100 µM
[4]
  TGI: > 100 µM
[5]
  TGI: > 100 µM
[7]
  TGI: > 100 µM
[48]
  TGI: > 100 µM
[49]
  TGI: > 100 µM
[50]
  TGI: > 100 µM
[8]
  TGI: > 100 µM
[9]
  TGI: > 100 µM
[51]
  TGI: > 100 µM
[10]
  TGI: > 100 µM
[11]
  TGI: > 100 µM
[12]
  TGI: > 100 µM
[13]
  TGI: > 100 µM
[52]
  TGI: > 100 µM
[14]
  TGI: > 100 µM
[15]
  TGI: 39.5 µM
[16]
  TGI: > 100 µM
[17]
  TGI: > 100 µM
[18]
  TGI: > 100 µM
[19]
  TGI: > 100 µM
[53]
  TGI: 64.9 µM
[21]
  TGI: > 100 µM
[22]
  TGI: > 100 µM
[23]
  TGI: > 100 µM
[24]
  TGI: 37 µM
[25]
  TGI: > 100 µM
[26]
  TGI: > 100 µM
[27]
  TGI: > 100 µM
[28]
  TGI: > 100 µM
[54]
  TGI: 64.3 µM
[29]
  TGI: > 100 µM
[55]
  TGI: > 100 µM
[30]
  TGI: > 100 µM
[31]
  TGI: > 100 µM
[32]
  TGI: > 100 µM
[33]
  TGI: > 100 µM
[34]
  TGI: > 100 µM
[56]
  TGI: > 100 µM
[35]
  TGI: > 100 µM
[36]
  TGI: > 100 µM
[37]
  TGI: > 100 µM
[38]
  TGI: > 100 µM
[39]
  TGI: > 100 µM
[40]
  TGI: > 100 µM
[41]
  TGI: > 100 µM
[42]
  TGI: > 100 µM
[43]
  TGI: > 100 µM
[44]
  TGI: > 100 µM
[45]
  TGI: > 100 µM
[46]
  TGI: > 100 µM
[57]
  TGI: > 100 µM
[47]
  TGI: > 100 µM
